The numbers were not newly measured in patent publication US20050239875A1, “Derivatives of dihydronepetalactone and method for preparation” (priority 2003, published 2005), which cites them from elsewhere.

The structures appear in SMILES notation.

The subject of this data set is insect. Particulars: disclosed by Hallahan in WO 03/079786.

In the case of `CC1COC(=O)C2C(C)CCC12` (stereo not shown) [DHN, Dihydronepetalactone], the “insect repellent performance compared with N,N-diethyl-m-toluamide (DEET)” value is on record as “compares favorably”.
